This is an account of results in PMC10495491 (Parasitology Research, 2023).

The subject of one series is Vero cells. As to the kind of experiment: Cytotoxicity test (MTT) on Vero cells. The conditions noted are these: 24 h incubation. The class given is cell-based, African green monkey. Here is the method:
(§1) Vero cells were seeded at a density of 1×10^4 cells/well in 96-well plate and incubated for 24 h at 37 °C in a 5% CO2 incubator. […] A stock solution in DMSO was initially prepared then diluted 100 times with culture media to obtain the highest concentration, then it was serially diluted. Three replicates for each drug concentration were performed. Cell viability was assayed by MTT method where 20 μl of 5 mg/ml MTT (Sigma, USA) was added to each well, and the plate was incubated at 37 °C for 3 h. Then, MTT solution was removed, 100 μl DMSO was added, and the absorbance of each well was measured using a Benchmark Microplate Reader (Bio Rad). […] [2021]; Montazeri et al. [2020]). Experiments were repeated three times. Vero cell growth suppression (%) was estimated using the following equation: […]×100 using CompuSyn software (version 1) (Chou [2006]; Chou and Talaly [1977]).

The test system of a further series is T. gondii tachyzoites. Put plainly: Effects of sulfa drugs on intracellular Toxoplasma gondii in Vero cells (MTT). The series is classed as cell-based, Toxoplasma gondii RH strain. The conditions noted are these: 24 h treatment. Here is the method:
For this purpose, Vero cells were cultured in 96-well plates (1×10^4 cells/well) for 24 h in RPMI 1640 medium supplemented with 10% inactivated FBS at 37 °C and 5% CO2. Next, the cells were infected with T. gondii tachyzoites (parasite: cell ratio = 10:1). Four hours following the inoculation, the cells were washed twice with RPMI to remove any non-adherent parasites. […] Cell viability was assayed by MTT method. Twenty microliters of 5 mg/ml MTT (Sigma, USA) was added to each well and the plate was incubated at 37 °C for 3 h. Then, MTT solution was removed, 100 μl DMSO was added, and the absorbance of each well was measured using a Benchmark Microplate Reader (Bio Rad). The optical absorbance was measured at 570-nm wavelength. Growth inhibition (GI) was calculated as in the following equation: GI%=At-Ac/Ac×100
where At and Ac are the absorbance of treated cells and control, respectively. […] Selectivity index (SI) of the samples was calculated using the IC50 and the host-cell cytotoxicity profiles CC50 (SI = CC50/IC50) (Montazeri et al. [2020]) using CompuSyn software (version 1) (Chou [2006]; Chou and Talaly [1977]).

Series [1] concerns T. gondii RH strain tachyzoites. Put plainly: Transmission electron microscopy of intracellular tachyzoites in Vero cells. The conditions noted are these: infected Vero cells treated with the IC50 of each compound for 24 h. The series is classed as cell-based, Toxoplasma gondii RH strain. Here is the method:
After confluence of Vero cells in four T-25 culture flasks, T. gondii RH strain tachyzoites, suspended in 5 ml of RPMI, and were added to each flasks in a ratio of 5:1 parasite-host cell (Diab and El-Bahy [2008]). Flasks were incubated for 2 h. After that, the cells were washed twice with culture media to remove extracellular parasites. The cells in culture flasks were incubated in 5 ml of culture media for 24 h at 37 °C in a 5% CO2 (Carvalho and De Melo [2010b]). […] For TEM (Jeol JSM-1400), trypsinization was followed by centrifugation at 2000g for 10 min, and the resulting pellet was fixed in buffered glutaraldehyde-phosphate 2.5% and stored at 4 °C until used (Shaw et al. [2002]). Then, the fixed specimens were washed thoroughly with Millonig phosphate buffer and post-fixed with buffered osmium tetroxide-phosphate. Following that, they were dehydrated in ascending concentrations of ethyl alcohol followed by embedding in epoxy resin. Finally, ultrathin sections were doubly stained with uranyl acetate and lead citrate trihydrate stains and examined under TEM (Winey et al. [2014]).

Series [2] in a line: Cytotoxicity test (MTT) on Vero cells. The series is classed as cell-based, African green monkey. The conditions noted are these: African green monkey, 24 h incubation. Here is the method:
as §1

Another series concerns tachyzoites. The conditions noted are these: ref Portes et al. [2018]; cited from earlier work.

A word on the CC50: it is the concentration at which the toxic effect on the cells reaches its halfway point. Low readings indicate greater toxicity to the cells, high ones lower toxicity to the cells. What is called IC50 is the concentration that gives 50% inhibition. The low end stands for higher potency, the high end for lower potency. Regarding “4-(4-(hydroxymethyl)-1H-1,2,3-triazol-1-yl)-N-(pyridin-2-yl)benzenesulfonamide [3e]”, the midpoint of cytotoxicity in the series with Vero cells, the CC50, lay at 510 ± 22 nM. In the series with T. gondii tachyzoites, this compound came in with an IC50 of 53.3 ± 10.5 nM. In addition, the “Ultrastructural alterations of intracellular tachyzoites (TEM)” value in series [1] is given as “large PVs containing multiple vacuolated tachyzoites without nuclei or organelles”.

For `Nc1ccc(S(=O)(=O)Nc2ncccn2)cc1` [Sulfadiazine, sulfadiazine], in series [2], the CC50 at 24 h was 1390 ± 100 nM. This compound displayed an IC50 in the series with T. gondii tachyzoites (Toxoplasma gondii) of 185 ± 18.4 nM. Besides, the “Ultrastructural alterations in tachyzoites after treatment” value with tachyzoites is recorded as “no significant ultrastructural alterations”.
